In PubChem BioAssay AID1745863:

Molecular target: Cationic amino acid transporter 3 (Homo sapiens) (UniProt Q8WY07)
Experiment: CAT-3 electrogenic transport substrate activity – HEK293 JumpIn overexpressing cells, membrane potential dye, dose response (AID 1745863)
Conditions: HEK293 JumpIn SLC7A3 OE, membrane potential dye FLIPR

Sequence of Cationic amino acid transporter 3 (Homo sapiens) (Q8WY07 whole entry, looked up): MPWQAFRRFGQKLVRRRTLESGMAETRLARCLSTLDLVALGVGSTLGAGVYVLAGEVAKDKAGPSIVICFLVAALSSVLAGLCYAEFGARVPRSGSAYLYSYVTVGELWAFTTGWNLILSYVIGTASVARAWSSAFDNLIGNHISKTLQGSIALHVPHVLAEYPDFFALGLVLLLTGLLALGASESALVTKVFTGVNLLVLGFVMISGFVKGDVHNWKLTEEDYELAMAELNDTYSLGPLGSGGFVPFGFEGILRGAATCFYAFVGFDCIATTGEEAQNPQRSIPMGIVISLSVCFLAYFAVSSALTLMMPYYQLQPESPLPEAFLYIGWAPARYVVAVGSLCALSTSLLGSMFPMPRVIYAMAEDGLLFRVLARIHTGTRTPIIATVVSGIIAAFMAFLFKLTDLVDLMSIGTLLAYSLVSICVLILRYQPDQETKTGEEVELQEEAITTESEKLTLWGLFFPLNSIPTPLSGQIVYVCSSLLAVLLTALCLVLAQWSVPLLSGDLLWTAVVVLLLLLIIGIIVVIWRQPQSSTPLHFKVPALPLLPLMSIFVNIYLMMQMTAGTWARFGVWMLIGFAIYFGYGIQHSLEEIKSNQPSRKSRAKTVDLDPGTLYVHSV

EC50 [µM] | SMILES
237 | NCCC[C@H](N)C(=O)O
283 | NC(N)=NCCC[C@H](N)C(=O)O
158 | NCCCC[C@H](N)C(=O)O
